According to US20260263495A1, “METHODS AND BIOAVAILABLE HIGHLY PERMEABLE COMPOUNDS FOR DISEASES TREATMENT” (priority 2024, published 2026):

What was measured:
[1] = API concentration in the blood plasma of cattle after oral administration; assay type: in vivo; conditions: 600 μg/kg (per pure IVM)
Protocol: Free ivermectin substance was processed in planetary mill, the parameters were as follows: weight of the material—5 g, grinding jar volume—200 mL, grinding media—steel balls (diameter 8 mm, 90.0 g load), processing time—20 minutes. Compound of Formula I was treated according to Example 1 No21.
Cattle were divided into 2 groups of 1 animals each. Free Ivermectin (IVM) and compound of Formula I were orally administered to starving cattle. Blood samples were withdrawn from the jugular vein at appropriate time intervals after administration (0, 4, 20 h).
Ivermectin concentrations in blood plasma were analyzed according to the method Na-Bangchang, K., High-performance liquid chromatographic method for the determination of ivermectin in plasma, Southeast Asian J Trop Med Public Health, 2006 September, 37(5):848-58, PMID: 17333725.
The internal standard (moxidectin) was separated from ivermectin on a Hypersil Gold C18 column(150×4.6 mm, […]), with retention time of 3.7 and 7.0 minutes, respectively. Fluorescence detection was set at an excitation and emission wavelength of 365 and 475 nm, respectively. The mobile phase consisted of acetonitrile, methanol and distilled water (50:45:5,v/v/v), running through the column at a flow rate of 1.5 ml/minute. The chromatographic analysis was operated at 25° C. Sample preparation (100 μl plasma) was done by a single step protein precipitation with acetonitrile, followed by derivatization with 100 μl of N-methylimidazolesolution in acetonitrile (1:1, v/v) and 150 μl of trifluoroacetic anhydrous solution in acetonitrile(1:2, v/v). Calibration curve over the concentration range of 20-8,000 ng/ml plasma was linear with correlation coefficient better than 0.995.
All the blood samples were centrifuged at 3000 rpm for 15 min to obtain […]. Cattle plasma samples (100 μL each) were placed in 1.5 mL Eppendorf tubes, and then the samples underwent protein precipitation. The samples were vortexed for 1 min and centrifuged at 13,400 rpm for 10 min 20 μL of the supernatant was injected into the HPLC.

[2] = system: monolayer of Caco-2 cells; experiment: Permeability of solid dispersion aqueous solution on the Caco-2 cell line; conditions: Caco-2 monolayer, 3 μM (per pure IVM) in HBSS on top, compound of Formula I = Example 1 No 2
SARS-CoV-2 = conditions: reference level compared with the lung Cmax; read-out: EC 50 for SARS-CoV-2; cited from earlier work

SMILES: CC[C@H](C)[C@H]1O[C@]2(CC[C@@H]1C)C[C@@H]1C[C@@H](C/C=C(\C)[C@@H](O[C@H]3C[C@H](OC)[C@@H](O[C@H]4C[C@H](OC)[C@@H](O)[C@H](C)O4)[C@H](C)O3)[C@@H](C)/C=C/C=C3\CO[C@@H]4[C@H](O)C(C)=C[C@@H](C(=O)O1)[C@]34O)O2 [IVM, Ivermectin]
- Cmax [1]: 350 ± 50 nM
- C1, 0 h, ivermectin concentration in plasma ([1]; 0 h, compound of Formula I treated according to Example 1 No21): 0 ± 0.15 ng/mL
- C2, 4 h, ivermectin concentration in plasma ([1]; 4 h, compound of Formula I treated according to Example 1 No21): 307.3 ± 46.1 ng/mL
- C3, 20 h, ivermectin concentration in plasma ([1]; 20 h, compound of Formula I treated according to Example 1 No21): 104.4 ± 15.6 ng/mL
- Cmax in lung calculated by plasma-lung ratio 2.67 ([1]; calculated from plasma Cmax): 930 ± 140 nM
- Concentrartion of IVM at the bottom of the well ([2]; 20 min): 50 ng/mL
- Concentrartion of IVM at the bottom of the well ([2]; 40 min): 90 ng/mL
- Concentrartion of IVM at the bottom of the well ([2]; 60 min): 150 ng/mL
- Concentrartion of IVM at the bottom of the well ([2]; 80 min): 190 ng/mL
- Concentrartion of IVM at the bottom of the well ([2]; 100 min): 210 ng/mL
- Concentrartion of IVM at the bottom of the well ([2]; 120 min): 250 ng/mL
- EC50 (SARS-CoV-2): 2400 nM
